Several values for one entry are separate records, joined by “and”; a condition that tells them apart may be missing. Equal values may be shown once. Inconclusive results and toxic doses are left out. The calls were made as follows: active = survival T/C of 150% or more; inactive = T/C below 125% in these data. Bridge positions count the residues as written; N and C are the ends. Peptide text beside a SMILES is read from it.
Test system: P388 leukemia ip, CD2F1 mice, survival T/C
Experiment: NCI In Vivo Anticancer Drug Screen. Data for tumor model P388 Leukemia (intraperitoneal) in CD2F1 (CDF1) mice
Conditions: endpoint: median survival time, higher = longer survival
Method in brief: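 Mice carrying the transplanted tumor received test compound or vehicle. Survival was recorded in each group, and the value is the treated-group measurement divided by that of the vehicle-treated control group.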

[1] = dose: 25.0 mg/kg/injection, schedule: Q01DX005 (ip), vehicle: saline
[2] = dose: 50.0 mg/kg/injection, schedule: Q01DX005 (ip), vehicle: Klucel (hydroxypropylcellulose) (HPC)
[3] = dose: 100.0 mg/kg/injection, schedule: Q01DX005 (ip), vehicle: Klucel (hydroxypropylcellulose) (HPC)
[4] = dose: 50.0 mg/kg/injection, schedule: Q01DX009 (ip), vehicle: saline
[5] = dose: 100.0 mg/kg/injection, schedule: Q01DX009 (ip), vehicle: saline
[6] = dose: 200.0 mg/kg/injection, schedule: Q01DX009 (ip), vehicle: saline
[7] = dose: 60.0 mg/kg/injection, schedule: Q01DX005 (ip), vehicle: Klucel (hydroxypropylcellulose) (HPC)
[8] = dose: 120.0 mg/kg/injection, schedule: Q01DX005 (ip), vehicle: Klucel (hydroxypropylcellulose) (HPC)
[9] = dose: 240.0 mg/kg/injection, schedule: Q01DX005 (ip), vehicle: Klucel (hydroxypropylcellulose) (HPC)
[10] = dose: 200.0 mg/kg/injection, schedule: Q01DX005 (ip), vehicle: Klucel (hydroxypropylcellulose) (HPC)
[11] = dose: 50.0 mg/kg/injection, schedule: Q01DX009 (ip), vehicle: Klucel (hydroxypropylcellulose) (HPC)
[12] = dose: 100.0 mg/kg/injection, schedule: Q01DX009 (ip), vehicle: Klucel (hydroxypropylcellulose) (HPC)

Measured: T/C

COC(=O)C[C@H]1[C@]2(C)C[C@@]34OC5(C)O[C@]6([C@@H]7CC(=O)OC(c8ccoc8)[C@]7(C)[C@@H](OC(C)=O)C[C@]6(O5)[C@@]13C)[C@H](OC(=O)C(C)C)[C@]4(O)[C@H]2OC(=O)C(C)C (stereo partly specified)
inactive: dose: 0.37 mg/kg/injection, schedule: Q01DX009 (ip), vehicle: Klucel (hydroxypropylcellulose) (HPC) 95 % of control | dose: 0.75 mg/kg/injection, schedule: Q01DX009 (ip), vehicle: Klucel (hydroxypropylcellulose) (HPC) 94 % of control | dose: 1.5 mg/kg/injection, schedule: Q01DX009 (ip), vehicle: Klucel (hydroxypropylcellulose) (HPC) 98 % of control | dose: 3.0 mg/kg/injection, schedule: Q01DX009 (ip), vehicle: Klucel (hydroxypropylcellulose) (HPC) 93 % of control

O=C1C=CC2(CC(O)OC3=C2C(=O)c2oc4cc(O)c(O)cc4c2C3=O)O1 (stereo unspecified)
inactive: dose: 10.0 mg/kg/injection, schedule: Q01DX009 (ip), vehicle: Klucel (hydroxypropylcellulose) (HPC) 102 % of control | dose: 20.0 mg/kg/injection, schedule: Q01DX009 (ip), vehicle: Klucel (hydroxypropylcellulose) (HPC) 109 % of control | dose: 40.0 mg/kg/injection, schedule: Q01DX009 (ip), vehicle: Klucel (hydroxypropylcellulose) (HPC) 105 % of control | dose: 80.0 mg/kg/injection, schedule: Q01DX009 (ip), vehicle: Klucel (hydroxypropylcellulose) (HPC) 111 % of control

COC1C=COC2(C)Oc3c(C)c(O)c4c(O)c(c(C5SCCS5)c(O)c4c3C2=O)NC(=O)C(C)=C/C=C\C(C)C2OC(C)(C)OC(C2C)C(C)C(OC(C)=O)C1C (stereo unspecified)
inactive: dose: 50.0 mg/kg/injection, schedule: Q01DX009 (ip), vehicle: saline with Tween-80 109 % of control | dose: 100.0 mg/kg/injection, schedule: Q01DX009 (ip), vehicle: saline with Tween-80 102 % of control | dose: 200.0 mg/kg/injection, schedule: Q01DX009 (ip), vehicle: saline with Tween-80 96 % of control

COc1cc2c[n+](C)c3c4cc(OC)c(OC)cc4c(OC)cc3c2cc1OC
inactive: dose: 12.5 mg/kg/injection, schedule: Q01DX005 (ip), vehicle: Klucel (hydroxypropylcellulose) (HPC) 118 % of control | [1] 109 % of control | [2] 112 % of control | [3] 118 % of control | dose: 100.0 mg/kg/injection, schedule: Q01DX005 (ip), vehicle: saline 120 % of control

N#C/C(=C/c1ccc(Cl)cc1)C(N)=O
inactive: dose: 25.0 mg/kg/injection, schedule: Q01DX001 (ip), vehicle: saline with Tween-80 102 % of control | dose: 50.0 mg/kg/injection, schedule: Q01DX001 (ip), vehicle: saline with Tween-80 104 % of control | dose: 100.0 mg/kg/injection, schedule: Q01DX001 (ip), vehicle: saline with Tween-80 97 % of control | dose: 200.0 mg/kg/injection, schedule: Q01DX001 (ip), vehicle: saline with Tween-80 97 % of control

c1cc2nc(N3CCNCC3)nc(N3CCOCC3)c2s1
inactive: [4] 94 % of control | [5] 97 % of control | [6] 93 % of control

CCC(C)C1NC(=O)C(CC(C)C)NC(=O)C(C(C)C)NC(=O)C2CSSCC(NC1=O)C(=O)N2 (stereo unspecified) (cyclo(CCVLI); disulfide 1-2; configuration not given here)
inactive: dose: 31.25 micrograms/kg/injection, schedule: Q01DX009 (ip), vehicle: Klucel (hydroxypropylcellulose) (HPC) 106 % of control | dose: 62.5 micrograms/kg/injection, schedule: Q01DX009 (ip), vehicle: Klucel (hydroxypropylcellulose) (HPC) 100 % of control | dose: 125.0 micrograms/kg/injection, schedule: Q01DX009 (ip), vehicle: Klucel (hydroxypropylcellulose) (HPC) 94 % of control | dose: 250.0 micrograms/kg/injection, schedule: Q01DX009 (ip), vehicle: Klucel (hydroxypropylcellulose) (HPC) 97 % of control | dose: 500.0 micrograms/kg/injection, schedule: Q01DX009 (ip), vehicle: Klucel (hydroxypropylcellulose) (HPC) 99 % of control | dose: 1000.0 micrograms/kg/injection, schedule: Q01DX009 (ip), vehicle: Klucel (hydroxypropylcellulose) (HPC) 97 % of control

COc1cc2c3c(c1OC)-c1[nH]c4ccccc4c1C1CCCN(CC2)C31 (stereo unspecified)
inactive: [7] 95 % of control | [8] 96 % of control | [9] 98 % of control

O=C(Nc1ccc(Cl)cc1)Nc1nnc2nc(CC(=O)c3ccc4ccccc4c3)c(=O)[nH]n12
inactive: dose: 60.0 mg/kg/injection, schedule: Q01DX005 (ip), vehicle: saline with Tween-80 97 % of control | dose: 120.0 mg/kg/injection, schedule: Q01DX005 (ip), vehicle: saline with Tween-80 99 % of control | dose: 240.0 mg/kg/injection, schedule: Q01DX005 (ip), vehicle: saline with Tween-80 97 % of control

Nc1nc(C2CCCCC2)cc(=O)[nH]1
inactive: [2] 87 % of control | [3] 97 % of control | [10] 97 % of control

[N-]=[N+]=CC(=O)Oc1ccc([N+](=O)[O-])cc1
inactive: dose: 3.13 mg/kg/injection, schedule: Q01DX009 (ip), vehicle: other 100 % of control | dose: 6.25 mg/kg/injection, schedule: Q01DX009 (ip), vehicle: other 98 % of control | dose: 12.5 mg/kg/injection, schedule: Q01DX009 (ip), vehicle: other 104 % of control | dose: 25.0 mg/kg/injection, schedule: Q01DX009 (ip), vehicle: other 98 % of control and 97 % of control | dose: 50.0 mg/kg/injection, schedule: Q01DX009 (ip), vehicle: other 89 % of control

CN(C)CCC(=O)c1ccc(Cl)c(Cl)c1
inactive: [11] 107 % of control | [4] 108 % of control | [12] 109 % of control | [5] 110 % of control | [6] 109 % of control

CCOC(=O)C(NC(C)=O)(C(=O)OCC)c1ccc(N)cn1
inactive: dose: 100.0 mg/kg/injection, schedule: Q04DX003 (ip), vehicle: saline 99 % of control | dose: 200.0 mg/kg/injection, schedule: Q04DX003 (ip), vehicle: saline 103 % of control | dose: 400.0 mg/kg/injection, schedule: Q04DX003 (ip), vehicle: saline 98 % of control

Cn1c2cc(F)ccc2c(=O)c2c(O)cc3c(c21)C=CC(C)(C)O3
inactive: [2] 94 % of control | [3] 92 % of control | [10] 94 % of control

CCCCC/C=C/CCCCCCC1C=CCC1 (stereo unspecified)
inactive: dose: 100.0 mg/kg/injection, schedule: Q01DX001 (ip), vehicle: saline 101 % of control | dose: 200.0 mg/kg/injection, schedule: Q01DX001 (ip), vehicle: saline 100 % of control | dose: 400.0 mg/kg/injection, schedule: Q01DX001 (ip), vehicle: saline 100 % of control

COc1ccc2cc1Oc1ccc(cc1)C[C@@H]1c3cc(c(OC)cc3CCN1C)Oc1c(OC)c(OC)cc3c1[C@H](C2)N(C)CC3
inactive: dose: 25.0 mg/kg/injection, schedule: Q04DX002 (ip), vehicle: suspension in saline 99 % of control | dose: 50.0 mg/kg/injection, schedule: Q04DX002 (ip), vehicle: suspension in saline 100 % of control | dose: 100.0 mg/kg/injection, schedule: Q04DX002 (ip), vehicle: suspension in saline 100 % of control | dose: 200.0 mg/kg/injection, schedule: Q04DX002 (ip), vehicle: suspension in saline 93 % of control

C(=C\c1ccccc1)/c1ccccc1
inactive: dose: 6.25 mg/kg/injection, schedule: Q01DX005 (ip), vehicle: saline 100 % of control | dose: 12.5 mg/kg/injection, schedule: Q01DX005 (ip), vehicle: saline 109 % of control | [1] 94 % of control

[N-]=[N+]=N[Si](c1ccccc1)(c1ccccc1)c1ccccc1
inactive: [11] 103 % of control | [12] 101 % of control | dose: 200.0 mg/kg/injection, schedule: Q01DX009 (ip), vehicle: Klucel (hydroxypropylcellulose) (HPC) 103 % of control

COSOC
inactive: dose: 7.5 mg/kg/injection, schedule: Q04DX003 (ip), vehicle: Klucel (hydroxypropylcellulose) (HPC) 105 % of control | dose: 15.0 mg/kg/injection, schedule: Q04DX003 (ip), vehicle: Klucel (hydroxypropylcellulose) (HPC) 104 % of control | dose: 30.0 mg/kg/injection, schedule: Q04DX003 (ip), vehicle: Klucel (hydroxypropylcellulose) (HPC) 98 % of control

S=C(N\N=C/C(/C=C/c1ccccc1)=N\NC(=S)Nc1ccc(Br)cc1)Nc1ccc(Br)cc1
inactive: dose: 100.0 mg/kg/injection, schedule: Q04DX002 (ip), vehicle: Klucel (hydroxypropylcellulose) (HPC) 106 % of control | dose: 200.0 mg/kg/injection, schedule: Q04DX002 (ip), vehicle: Klucel (hydroxypropylcellulose) (HPC) 97 % of control | dose: 400.0 mg/kg/injection, schedule: Q04DX002 (ip), vehicle: Klucel (hydroxypropylcellulose) (HPC) 95 % of control

S=P(Oc1ccccc1)(N1CCCCN1)N1CCCCN1
inactive: [7] 97 % of control | [8] 107 % of control | [9] 100 % of control

From PubChem BioAssay AID330 (DTP/NCI, 2004)
